From article PMC12080252, “Daphnia magna as an Alternative Model for (Simultaneous) Bioaccumulation and Chronic Toxicity Assessment—Controlled Exposure Study Indicates High Hazard of Heterocyclic PAHs” (Environmental Science & Technology, 2025)
Values joined by “and” are separate entries in the source; they are usually repeats but may differ in a detail not shown here. Equal values may be shown once.

Key:
[1] = Chronic reproduction toxicity test (OECD 211) with passive dosing; format: in vivo, Daphnia magna; conditions: Daphnia magna, in vivo, other: waterborne exposure by passive dosing from PDMS disks, 21-day test, read-out: % offspring mortality of total offspring
Outline: (§1)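 D. magna juveniles (<24 h) exposed individually 21 days by passive dosing from PDMS disks, static, 20 °C, 16:8 h light/dark, medium renewed three times weekly, fed daily; water concentrations measured initially and before renewal. Offspring per mother versus controls gave percent inhibition; EC10/EC20/EC50 from four-parameter logistic fit of log10 concentrations (Top 100, Bottom 0).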

Daphnia magna = assay: as above; format: in vivo; conditions: for EC10: 21-day reproduction inhibition; for % inhibition, avr.: average of vessels; for #live offspring per mother, Total: one value per vessel; for wet weight of parent daphnids, change relative to control: end of 21-d exposure
Outline: as §1

D. magna = conditions: controlled exposure conditions; cited from earlier work
[2] = DNF 0.2 µg/L (0.125 g/L methanol), 21 days
[3] = DNF 0.41 µg/L (0.5 g/L methanol), 21 days
[4] = DNF 1.24 µg/L (1 g/L methanol), 21 days
[5] = DNF […] (0.25 g/L methanol), 21 days
[6] = DNF avr. medium concentration 1.35 µg/L, conc. of methanol for dosing 1.5 g/L, 21 days, single vessels 1-6 (replicates)

c1ccc2c(c1)ccc1oc3ccc4ccccc4c3c12 [DNF, dinaphtho[2,1-b:1′,2′-d]furan]
mortality at 21 days, 0.18 µg/L ([1]; 0.18 µg/L (Fig. S8)): 2.6%
mortality at 21 days, 0.24 µg/L ([1]; 0.24 µg/L (Fig. S8)): 5%
mortality at 21 days, 0.39 µg/L ([1]; 0.39 µg/L (Fig. S8)): 5.1%
mortality at 21 days, 1.16 µg/L ([1]; 1.16 µg/L (Fig. S8)): 11.8%
mortality at 21 days, 1.3 µg/L ([1]; 1.30 µg/L (Fig. S8)): 16.7%
mortality at 21 days, 1.44 µg/L ([1]; 1.44 µg/L (Fig. S8)): 42.2%
EC10 (Daphnia magna; 97.5-2.5% confidence interval in brackets): 0.14 (0.05-0.28) μg L^-1
EC10 (Daphnia magna; confidence interval in brackets): 0.52 (0.18-1.03) nmol L^-1
growth of parent D. magna (wet weight) (Daphnia magna; 21-day test, p-value <0.05): did not except at saturation
LOEC (lowest observed effect concentration, reproduction inhibition) (Daphnia magna; 21 days, p-value <0.05 vs controls): 0.2 μg L^–1
#average live offspring (Daphnia magna; [2]): 75
%offspring mortality (Daphnia magna; [2]): 2.61%
% inhibition, avr. (Daphnia magna; [2]): 12.9%
#total live offspring (Daphnia magna; DNF 0.2 µg/L (0.125 g/L methanol), 21 days, sum of all vessels): 447
% inhibition (per vessel) (Daphnia magna; DNF 0.2 µg/L (0.125 g/L methanol), live offspring vs controls, 21 days, per vessel): 15.8%
#average live offspring (Daphnia magna; [3]): 63
%offspring mortality (Daphnia magna; [3]): 5.09%
% inhibition, avr. (Daphnia magna; [3]): 25.8%
#total live offspring (Daphnia magna; DNF 0.41 µg/L (0.5 g/L methanol), 21 days, sum of all vessels): 317
mother animal mortality (Daphnia magna; DNF 0.41 µg/L (0.5 g/L methanol), vessel 3, day 5): dead
#average live offspring (Daphnia magna; [4]): 59
%offspring mortality (Daphnia magna; [4]): 11.81%
% inhibition, avr. (Daphnia magna; [4]): 31.6%
#total live offspring (Daphnia magna; DNF 1.24 µg/L (1 g/L methanol), 21 days, sum of all vessels): 351
#average live offspring (Daphnia magna; [5]): 69
%offspring mortality (Daphnia magna; [5]): 4.95%
% inhibition, avr. (Daphnia magna; [5]): 19.1%
#total live offspring (Daphnia magna; DNF […] (0.25 g/L methanol), 21 days, sum of all vessels): 346
mother animal mortality (Daphnia magna; DNF […] (0.25 g/L methanol), vessel 6, day 5): dead
#live offspring per mother, Total (Daphnia magna; DNF avr. medium concentration 0.2 µg/L (methanol for dosing 0.125 g/L), 21 days): 75 and 64 and 72 and 66 and 98
#live offspring per mother, Total (Daphnia magna; DNF avr. medium concentration 0.41 µg/L (methanol for dosing 0.5 g/L), 21 days): 59 and 75 and 67 and 55 and 61
#live offspring per mother, Total (Daphnia magna; DNF avr. medium concentration 1.24 µg/L (methanol for dosing 1 g/L), 21 days): 62 and 51 and 53 and 60 and 50 and 75
%offspring mortality (Daphnia magna; DNF avr. medium concentration 1.35 µg/L, conc. of methanol for dosing 1.5 g/L, 21 days): 16.71%
% inhibition, avr. (live offspring per mother) (Daphnia magna; DNF avr. medium concentration 1.35 µg/L, conc. of methanol for dosing 1.5 g/L, 21 days, average of 6 vessels): 39.8%
#average live offspring (Daphnia magna; DNF avr. medium concentration 1.35 µg/L, conc. of methanol for dosing 1.5 g/L, 21 days, mean of 6 vessels): 52
#dead offspring per mother, Total (per vessel) (Daphnia magna; [6]): 9 and 12 and 16 and 5 and 8
#live offspring per mother, Total (per vessel) (Daphnia magna; [6]): 49 and 74 and 37 and 40 and 53 and 56
% inhibition (live offspring per mother, per vessel) (Daphnia magna; [6]): 42.7% and 13.5% and 56.7% and 53.2% and 38.0% and 34.5%
#total live offspring (Daphnia magna; DNF avr. medium concentration 1.35 µg/L, conc. of methanol for dosing 1.5 g/L, 21 days, sum of 6 vessels): 309
EA50 (effective chemical activity) (Daphnia magna; EC50/subcooled liquid solubility, eq 1): 0.032 unitless
Classification according to REACH Annex XIII (Daphnia magna; chronic EC10 < 10 μg L^–1): toxic to aquatic life
CTLBB (critical target lipid body burden) (Daphnia magna; derived from chronic EC10 using eq 3): 3.4 μmol g^-1 octanol
wet weight of parent daphnids, change relative to control (Daphnia magna; 0.18 µg/L (Fig. S9)): +1%
wet weight of parent daphnids, change relative to control (Daphnia magna; 0.24 µg/L (Fig. S9)): -2%
wet weight of parent daphnids, change relative to control (Daphnia magna; 0.39 µg/L (Fig. S9)): -6%
wet weight of parent daphnids, change relative to control (Daphnia magna; 1.16 µg/L (Fig. S9)): 2%
wet weight of parent daphnids, change relative to control (Daphnia magna; 1.30 µg/L (Fig. S9)): -6%
wet weight of parent daphnids, change relative to control (Daphnia magna; 1.44 µg/L (Fig. S9)): -27%
acute effects on D. magna immobilization (D. magna): no effects were observed
